Experimental data from patent US20130012709A1, “NOVEL INHIBITORS OF STEAROYL-CoA-DESATURASE-1 AND THEIR USES” (CENTRE NATIONAL DE LA RECHERCHE SCIENTIFIQUE, priority 2009, published 2013).
Read-outs that look alike come from different tables or passages of the source. Blank lines part the entries; values can stand above or below the compound they belong to.

Legend:
LNCaP cells [1] = assay: Proliferation by BrDU incorporation; type: cell-based, human
Experimental: (§2) LNCaP and C4-2 cells grown on coverslips were incubated for 4 hours with BrdU (100 μM final) at 24 hours and 48 hours following SCD-1 knock-down. Cells were then fixed and permeabilized with cold methanol for 10 min at −20° C. After 3 washes with PBS, DNA was denaturated with 4NHCL for 10 min at RT, and cells were incubated with blocking buffer (PBS-1% BSA). BrDU was then detected with anti-BrDU monoclonal antibody 1:50 (Dako, Carpinteria, Calif.) for 1 hour at 37° C. After 3 washes with PBS, cells were incubated with an FITC-conjugated anti-mouse secondary antibody 1:150 (Jackson Immunoresearch) for 30 min at 37° C., and slides were mounted in mowiol.

C4-2 cells [2] = assay: Proliferation by BrDU incorporation
Experimental: as §2

SCD1 mRNA and protein = assay: SCD-1 knock-down by siRNA, mRNA and protein expression; type: cell-based, human
Experimental: For small interfering (si) RNA experiments, transfection of LNCaP or C4-2 cells was carried out with pre-designed ON-TARGET plus siRNA oligonucleotides control or targeting the human SCD-1 sequence GCACAUCAACUUCACCACA (Dharmacon, Lafayette, Co, USA).
Nucleofaction of cells with 2.5 μg siRNA were performed on 2×10^6 cells using Amaxa nucleofactor R kit (Lonza, Cologne, Germany). Twenty-four hours and 48 hours after transfection, cells were processed for cell proliferation by BrdU staining and harvested for RNA and protein analysis.
RNA was extracted with the use of TRI-Reagent (Euromedex, Mundolsheim, France) according to the manufacturers' recommendations. Reverse transcription of total RNA was performed at 37° C. using the M-MLV reverse transcriptase (Invitrogen) and random hexanucleotide primers (Promega, Madison, Wis.), followed by a 15 min inactivation at 70° C. Quantitative PCR was conducted using the primers specific for human SCD1 and SYBR Green Light Cycler Master Mix (Eurofins MWG Operon, Roissy CDG). […] Values are expressed as the relative mRNA level of specific gene expression as obtained using the formula 2^−(ΔCt).

LNCaP cells [3] = assay: Flow cytometry analysis of cell cycle; type: cell-based, human; settings: 25 μM, 48 h; untreated cells 20
Experimental: (§1) Cells were then rinsed in PBS, pelleted at 400 g for 5 min and maintained on ice for 20 min before resuspension in a […] propidium iodide (Sigma) solution. Cells were kept overnight at 4° C. and the percentages of cells in G1, S and G2-M phases of the cell cycle were measured with a Coulter Epics XL™ flow cytometer (Becton Dickinson) using 488-nm laser excitation. For apoptosis experiment, MEFs were treated with the tested compound at 25 μM for 24 h, then rinced in PBS, pelleted at 400 g for 5 min and stained with annexinV-FITC (Roche Diagnostics, Meylan, France) for 15 min at 4° C. The percentage of annexin positive cells was immediately analysed using 488-nm laser excitation.

C4-2 cells [4] = assay: Flow cytometry analysis of cell cycle; type: cell-based, human; settings: 25 μM, 48 h; untreated cells 22
Experimental: as §1

C4-2 cells [5] = assay: MTT assay (cell viability); settings: 48 h
Experimental: (§3) After 48 h, medium was removed and 250 μl of a 5 mg/ml MTT (Sigma, St Louis, Mo., USA) solution in PBS was added to each well. After 4 h incubation at 37° C., the MTT solution was removed, 200 μl of DMSO (Sigma) was added and cells were incubated for 5 min. Two hundred microliters of each samples was distributed in 96-well plates for an optical density reading at 540 nm.

C4-2 cells [6] = test system: C4-2 cells
Experimental: as §3

Compound: siRNA: pre-designed ON-TARGET plus siRNA oligonucleotides targeting the human SCD-1 sequence GCACAUCAACUUCACCACA (Dharmacon) (chemistry not given here) [reference compound]
proliferation after SCD-1 knock-down (LNCaP cells [1]; LNCaP, siRNA): marked decrease
proliferation after SCD-1 knock-down (C4-2 cells [2]; C4-2, siRNA): marked decrease
SCD1 mRNA and protein expressions (SCD1 mRNA and protein): blocked

melting point: 202 °C
Compound: COc1ccc(Br)c(C(=O)N2CCN(S(=O)(=O)c3ccc(F)cc3)CC2)c1 [Example 2, 1-[(2-bromo-5-methoxybenzoyl)]-4-[(4-fluorophenyl)sulfonyl]piperazine]
% LNCaP cells in phase S at 25 μM (LNCaP cells [3]): 5%
% C4-2 cells in phase S at 25 μM (C4-2 cells [4]): 11.8%
inhibition at 25 µM (C4-2 cells [2]; Homo sapiens, C4-2, 48 h, read-out: % Inhibition of proliferation at 25 μM (BrDU) on C4-2): 37.2 ± 8.8%
Viable C4-2 cells at 25 μM (% of control) (C4-2 cells [5]): 49 % of control

Compound: COc1ccc(Br)c(C(=O)N2CCN(S(=O)(=O)c3ccc(F)cc3F)CC2)c1 [Example 12, 1N-[(2-bromo-5-methoxybenzoyl)]-4N-[(2, 4 difluorophenyl)sulfonyl]piperazine]
% Inhibition of proliferation at 25 μM (BrDU) on LNCaP (LNCaP cells [1]; 25 μM, 48 h of treatment): 60.6%
% Inhibition of proliferation at 25 μM (BrDU) on C4-2 (C4-2 cells [2]; 25 μM, 48 h of treatment): 55.2 ± 0.5%
Viable C4-2 cells at 25 μM (% of control) (C4-2 cells [6]): 70 % of control
